According to publication PMC2941486 (Journal of Biomedical Science, 2010):
Marks after values point to notes of the source that are not given here. Square brackets hold non-standard residues; d marks the D form. Peptide text beside a SMILES is read from it. Dopa = N[C@@H](Cc1ccc(O)c(O)c1)C(=O)O; dPhg = N[C@@H](C(=O)O)c1ccccc1

What was measured:
[1] = target: T1, intestinal peptide transporter I (PepT1) (Rattus norvegicus, UniProt P51574); test: BBMV uptake of d-phenylglycine-l-dopa with or without competitors; assay type: in vitro ADME; details: pH 7.4, room temperature
T1 construct: brush-boarder membrane vesicle (BBMV) prepared from rat intestine; from tissue; host or cells: rat intestine, brush-border membrane vesicles made by magnesium precipitation
T1 sequence (P51574 1-710): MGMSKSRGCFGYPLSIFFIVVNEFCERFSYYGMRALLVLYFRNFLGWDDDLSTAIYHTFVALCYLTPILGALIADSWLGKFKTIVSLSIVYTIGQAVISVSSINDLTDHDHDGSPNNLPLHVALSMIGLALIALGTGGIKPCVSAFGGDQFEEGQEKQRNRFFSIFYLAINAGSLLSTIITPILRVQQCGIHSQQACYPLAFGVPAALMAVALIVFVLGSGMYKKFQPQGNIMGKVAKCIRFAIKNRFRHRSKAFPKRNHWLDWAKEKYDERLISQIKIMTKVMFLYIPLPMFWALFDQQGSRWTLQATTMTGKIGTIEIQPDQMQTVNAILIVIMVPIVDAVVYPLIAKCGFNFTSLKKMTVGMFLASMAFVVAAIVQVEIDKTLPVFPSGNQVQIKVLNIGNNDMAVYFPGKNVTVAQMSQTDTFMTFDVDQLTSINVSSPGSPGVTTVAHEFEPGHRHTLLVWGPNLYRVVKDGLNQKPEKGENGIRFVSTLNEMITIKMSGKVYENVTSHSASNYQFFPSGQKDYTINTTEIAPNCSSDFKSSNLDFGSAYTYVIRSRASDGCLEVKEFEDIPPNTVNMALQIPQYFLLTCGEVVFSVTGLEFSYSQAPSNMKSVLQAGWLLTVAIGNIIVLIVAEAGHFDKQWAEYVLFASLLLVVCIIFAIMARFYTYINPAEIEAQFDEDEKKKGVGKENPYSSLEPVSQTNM

striatal dopamine = test: Brain microdialysis of striatal dopamine after i.v. injection; assay type: in vivo, Sprague-Dawley rats; details: after i.v. injection 50 mg/kg
Description: Single dose d-phenylglycine-l-dopa (50 mg/kg in 2.5 mL of normal saline) was administered i. v. via femoral vein to anesthetized male Sprague-Dawley rats (280 - 320 g). The body temperature of the rats was maintained at 37°C with a heating pad throughout the experiment. The rat was immobilized in a stereotaxic frame (David Kopf Instruments, Tujunga, CA, USA), the skull was surgically exposed, and a hole was drilled with a trephine into the skull based on stereotaxic coordinates. The brain microdialysis system consisted of a CMA/100 microinjection pump (CMA, Stockholm, Sweden) and a microdialysis probe. The dialysis probes (3 mm in length) were made of silica capillary in a concentric design with their tips covered by dialysis membrane (Spectrum, 150 μm outer diameter with a cut-off at nominal molecular mass of 13000, Laguna Hills, CA, USA). The probe was placed into right striatum (0.2 mm anterior to bregma and 3.2 mm lateral to midline) and perfused with Ringer's solution (147 mM Na+; 2.2 mM Ca++; 4 mM K+; pH 7.0) at a flow-rate of 1 μl min^-1. The position of each probe was verified at the end of experiments. The dialysates was collected at 10 min intervals and aliquots of 10 μl was assayed by microbore HPLC. […]

[2] = Pharmacokinetics after i.v. and oral administration; assay type: in vivo, Wistar rats; details: for AUC / half-life / clearance / Vd / Tmax: Wistar, rat, plasma, 5.97 mg/kg; for clearance: read-out: Clp; for Vd: read-out: Vdss; for Fraction of absorption (BA): oral vs i.v., Equation 1, rats
Description: Rats were fasted for at least 18 h prior to drug administration. Anaesthesia was induced by i.p. injection of urethane (0.15 g/100 g body weight). The rats were put under a heating lamp to maintain body temperature.
The HPLC system used in the assay of biological samples consisted of an autosampler (AS950, Jasco, Tokyo, Japan), a Waters Model 600E solvent delivery pump (Millipore, Milford, MA, USA), a Model LC-4C electrochemical detector with a glassy-carbon electrode (Bioanalytical Systems, Inc., West Lafayette, IN, USA), and an integrator (Macintosh LC II with Macintegrator I). A Nucleosil® 10 SA cationic ion-exchange column (10 μm, 300 × 4.0 mm, Macherey-Nagel, Düren, Germany) with a mobile phase comprising NaCl (50 mM) and Na2-EDTA (1.0 mM) in 0.1 M ammonium phosphate buffer (pH 2.0) at a flow rate of 2.0 ml/min was used for the elution of the samples. […] HPLC assay methods were validated by determining the precision and accuracy of intra-day and inter-day analysis of serum standards over a period of 6 days. The coefficients of variation for inter- and intraday assays were less than 15% for both compounds (n = 6).
According to the literature, the area under the plasma concentration-time profile (AUC) was calculated by log-linear trapezoidal rule. Plasma concentration after i.v. administration of drugs were also fitted to a […] model using PCNONLIN and Akeike's Information Criteria, sum of squared residuals, residual plot and correlation coefficient were use for determination of the compartment model. The residual area after the last observed data point was calculated as Clast/k, where Clast is the last observed concentration, and k is the corresponding terminal rate constant. Terminal half-life (t1/2) was estimated compartment model-independently. The fraction of absorption was calculated according to Equation 1.
(1) BA=AUCoral⋅koral/doseoral/AUCiv⋅kiv/doseiv×100%
Blood samples were collected from the carotid artery at time intervals of from 1 to 180 min. Heparin sodium (25 I.U./ml in 0.3 ml of saline) was added to blood samples, and were then centrifuged at 6,600 g for 5 min. Plasma was stored at -78°C until being analyzed. A 200 μl of the plasma sample in a 10 ml test tube was mixed with 500 μl of 1.0 M Tris buffer (pH 8.6, adjusted by EDTA-2Na^+) and 10 μl of 3,4-dihydroxybenzylamine (DHBA, 2 μg/ml) was added as internal standard. Alumina 100 mg was then added and then shake for 15 sec and the supernatant was decanted. The alumina was washed four times with 5 ml of water, and the adsorbed compounds on the alumina was eluted with 200 μl of an acidic solution (0.9 ml of glacial acetic acid in 4.0 ml of 1.0 M phosphate buffer). A 30 μl of the eluent was then analyzed by HPLC.

[3] = In situ single-pass jejunal perfusion; assay type: in vivo, rat; details: for Blood concentration: steady-state plasma concentration after jejunal perfusion, l-dopa detected in only one of three rats
Description: Literature procedure was followed for the preparation of perfusion solutions and the jejunal segments. To maximize the absorption and to prevent the test compounds from being oxidized during perfusion, the experiments were performed at pH 6.0 with 0.02% (w/v) ascorbic acid added as antioxidant and nitrogen gas was bubbled through for 10 min before each experiment. Perfusion solution was pumped through the jejunal segment at a flow rate of 0.2 ml/min by a syringe pump (Stoelting, KD Scientific, U.S.A.). The jejunal segment was pre-washed with drug-free buffer for 10 min before the drug solution was pumped in. Outlet tubing samples were collected every 10 min for 6 collection periods after water and solute transport reached steady-state. The dimensionless membrane permeability Pm* [28] was measured as indications for the disappearance rate of test compound from the intestine. Plasma samples were withdrawn from carotid artery.
The absorption of d-phenylglycine-l-dopa and l-dopa was compared in rats by in situ single-pass jejunal perfusion experiments. Amidon's dimensionless cross-membrane permeability (Pm*) was determined as a parameter of intestinal absorption. The steady-state plasma concentration was also determined (Table 1).

[4] = Stability in rat intestinal mucosa suspension; assay type: in vitro ADME; details: pH 6.5 isotonic buffer, 37°C
Description: Mucosa suspension was prepared from the intestine of male Wistar rats according to established method and was stored in an ice bath before use.
The stability of d-phenylglycine-l-dopa in the intestine was determined prior to the intestinal absorption studies. In order to simulate intestinal microclimate pH, the compound was incubated with the intestinal mucosal suspension in a pH 6.5 isotonic buffer solution. l-Gly-l-Phe comprising essential amino acids degraded rapidly with only 50% of recovery after 2 min of incubation. d-Phenylglycine-l-dopa, on the other hand, was very stable with almost 100% of recovery after 90 min of incubation (Figure 3).
Figure 3 Comparison of the stability of d-phenylglycine-l-dopa and l-Gly-l-Phe in rat intestinal mucosa suspension. Each point represents mean ± SE. of 3 experiments. A methanolic solution (100 μl) of the test compound (1 mg/ml) was diluted with an isotonic mannitol buffer solution (pH 6.5, 2.4 ml) as the stock solution. This stock solution (1 ml) was mixed with the freshly prepared mucosal suspension (1 ml). The mixture was incubated in a water bath at 37°C and subjected to sampling at intervals between zero to 90 min of incubation. Each sampled solution (200 μl) was denatured with 0.8 ml of MeOH and centrifuged at 6,600 g for 5 min. Each of the supernatant (20 - 100 μl) was subjected to HPLC assay.

[5] = tested on: 6-OHDA-treated unilateral striatal-lesioned rats; details: 10 mg/kg
[6] = oral, dose equivalent to 5.97 mg/kg l-dopa, rats

Inhibition of BBMV uptake of d-phenylglycine-l-dopa by added competitor [1]	AUC ([2]; iv) [ng·h/mL]	half-life ([2]; iv) [h]	clearance ([2]; iv) [mL/min/kg]	Vd ([2]; iv) [L/kg]	AUC ([2]; po) [ng·h/mL]	Tmax ([2]; po) [h]	half-life ([2]; po) [h]	Fraction of absorption (BA) [2] [%]	Clp [2, 6] [mL/min/kg]	Blood concentration [3]	Compound	also measured
significantly inhibited											CC1=C(C(=O)O)N2C(=O)[C@@H](NC(=O)[C@H](N)C3=CCC=CC3)[C@H]2SC1 [cephradine]	
	1040	4.23 ± 1.22	180 ± 60	11 ± 5.08	481	0.638	2.38 ± 0.395	27.58 ± 4.56	290 ± 100	64.6 ± 5.40 µg/mL	N[C@@H](C(=O)N[C@@H](Cc1ccc(O)c(O)c1)C(=O)O)c1ccccc1 [d-phenylglycine-l-dopa] (H-[dPhg]-[Dopa]-OH)	Time at which striatal dopamine had not reached plateau (striatal dopamine): > 3.5 h; Striatal dopamine level (striatal dopamine; anesthetized rats, dialysates at 10 min intervals): increased gradually; Systemic bioavailability (AUC), times lower than that of l-dopa ([2]; i.v., rats): 7 times; Vdss [2, 6]: 35.7 ± 17.1 L/kg; Fraction of oral absorption, fold higher than that of l-dopa ([2]; rats, oral): 31 fold; Oral bioavailability, times higher than that of l-dopa ([2]; rats, oral): 31.7 times; Steady-state plasma concentration after perfusion, molar ratio, higher than that of l-dopa ([3]; jejunal perfusion, rats): 31.1 fold; Molar ratio of blood concentration ([3]; steady-state, jejunal perfusion): 31.1; recovery at 90 min, 0.02 mg/ml ([4]; male, Wistar, rat, intestinal mucosa suspension, 90 min of incubation, read-out: Recovery after incubation with intestinal mucosal suspension): ~100%
significantly inhibited											NCC(=O)N[C@@H](Cc1ccccc1)C(=O)O [l-Gly-l-Phe, reference compound] (H-Gly-Phe-OH)	Recovery after incubation with intestinal mucosal suspension ([4]; 2 min of incubation): 50%
significantly inhibited											NCC(=O)N1CCC[C@H]1C(=O)O [l-Gly-l-Pro] (H-Gly-Pro-OH)	
less inhibited											N[C@@H](Cc1ccccc1)C(=O)O [l-Phe]	
	7660	1.69 ± 0.462	20 ± 20	1.22 ± 0.89	456	0.417	3.08 ± 0.77	0.87 ± 0.24	10 ± 0	1.24^a μg/ml	N[C@@H](Cc1ccc(O)c(O)c1)C(=O)O [l-dopa, reference compound]	Reduction in rotation (mean ± SE %) [5]: 9.9 ± 1.4%
